The test relates to moderate to severe papular pustular rosacea with perioral dermatitis. Description: Treatment of a subject with the formulation, clinical examination after 1 month. Format: in vivo, human. The conditions noted are these: same subject, treatment history before the formulation, as reported at first visit. From the text:
The lesions consisted of papules and pimples, was severe in severity, and had been present for months. […] The subject was having a bad “acne” flare up, and stated that their face was itchy and red. The subject had been treated for “acne” for a long time.
The subject was diagnosed with moderate to severe papular pustular rosacea with perioral dermatitis.
The subject was given the formulation of Example 1, and the subject administered it twice daily (AM and PM) and was seen again 1 month later, at which time their condition had improved. The subject's condition at this later examination was recorded in the images in FIGS. 2A to 2C.

Regarding `CC1=C(/C=C/C(C)=C/C=C/C(C)=C/C(=O)O)C(C)(C)CCC1` [tretinoin], the “improvement of "acne" lesions with previously tried treatment” value is recorded as “no improvement”.

(Values after patent US20220202841A1, “DERMATOLOGICAL FORMULATIONS FOR TREATMENT OF DERMATITIS” (priority 2020, published 2022).)
